Our source for the MIC values is ChEMBL document CHEMBL3045904, “Synthesis, AM1 calculation, and biological studies of thiopyran-4-one and their azine derivatives” (2007).

As usually defined, the MIC is the lowest concentration found to suppress growth.

Type in all cases: functional
One assay deals with Pseudomonas aeruginosa. Description: Antibacterial activity against Pseudomonas aeruginosa after 24 hr by twofold serial dilution method.
The subject of the next assay is Staphylococcus aureus. Description: Antibacterial activity against Staphylococcus aureus after 24 hr by two-fold serial dilution method.
In a further assay the test system is Bacillus subtilis. Put plainly: Antibacterial activity against Bacillus subtilis after 24 hr by two-fold serial dilution method.
The subject of the next assay is Enterococcus faecalis. Put plainly: Antibacterial activity against Enterococcus faecalis after 24 hr by two-fold serial dilution method.
Another assay has as its system Escherichia coli. Description: Antibacterial activity against Escherichia coli after 24 hr by two-fold serial dilution method.
A further assay concerns Aspergillus flavus. Description: Antifungal activity against Aspergillus flavus after 72 to 96 hr by two-fold serial dilution method.
The test system of assay [1] is Candida. Description: Antifungal activity against Candida-51 after 72 to 96 hr by two-fold serial dilution method.
Assay [2] deals with Candida. Description: Antifungal activity against Candida-6 after 72 to 96 hr by two-fold serial dilution method.
A further assay relates to Aspergillus niger. Put plainly: Antifungal activity against Aspergillus niger after 72 to 96 hr by two-fold serial dilution method.

≈ marks a conversion by molar mass, not a printed value. Calls of active or inactive are those of the source. The calls are words filed in the database; no cut-off is given here.

For the compound `CN[C@@H]1[C@H](O[C@H]2[C@H](O[C@H]3[C@H](O)[C@@H](O)[C@H](N=C(N)N)[C@@H](O)[C@@H]3N=C(N)N)O[C@@H](C)[C@]2(O)C=O)O[C@@H](CO)[C@H](O)[C@H]1O` [STREPTOMYCIN], the MIC is 25 µg/mL (≈ 43 µM) against Pseudomonas aeruginosa; 25 µg/mL (≈ 43 µM) with Staphylococcus aureus; 12.5 µg/mL (≈ 21.5 µM) with Bacillus subtilis; 50 µg/mL (≈ 86 µM) in the assay with Enterococcus faecalis; 12.5 µg/mL (≈ 21.5 µM) with Escherichia coli.

For `O=C1C[C@@H](c2ccccc2)S[C@@H](c2ccccc2)C1`, the minimum inhibitory concentration (MIC) in the assay with Aspergillus flavus, in the assay with Candida [2], in the assay with Staphylococcus aureus and against Bacillus subtilis was 100 µg/mL (≈ 373 µM) in each case. The MIC entry in the assay with Candida [1], with Aspergillus niger, with Pseudomonas aeruginosa, with Enterococcus faecalis and with Escherichia coli was “inactive” each time.

Turning to `O/N=C1\C[C@@H](c2ccccc2)S[C@@H](c2ccccc2)C1`, the MIC with Aspergillus flavus, in the assay on Candida [2], with Staphylococcus aureus and with Bacillus subtilis was 100 µg/mL (≈ 353 µM) throughout. In addition, the MIC entry in the assay on Candida [1], in the assay on Aspergillus niger, in the assay on Pseudomonas aeruginosa, in the assay with Enterococcus faecalis and in the assay with Escherichia coli was “inactive” throughout.

For `COc1ccc(/C=N/N=C2\C[C@@H](c3ccccc3)S[C@@H](c3ccccc3)C2)cc1` (relative stereo), the minimum inhibitory concentration (MIC) against Aspergillus flavus turned out to be 100 µg/mL (≈ 250 µM); with Candida [1], 12.5 µg/mL (≈ 31.2 µM); against Candida [2], 12.5 µg/mL (≈ 31.2 µM); against Aspergillus niger, 50 µg/mL (≈ 125 µM); against Pseudomonas aeruginosa, 50 µg/mL (≈ 125 µM); with Staphylococcus aureus, 25 µg/mL (≈ 62.4 µM). Also, the MIC against Bacillus subtilis is 6.25 µg/mL (≈ 15.6 µM); in the assay with Enterococcus faecalis, 25 µg/mL (≈ 62.4 µM); with Escherichia coli, 12.5 µg/mL (≈ 31.2 µM).

Regarding `C[C@@H]1[C@H](O)[C@@H](C)/C=C/C=C/C=C/C=C/C=C/C=C/C=C/[C@H](O[C@@H]2O[C@H](C)[C@@H](O)[C@H](N)[C@@H]2O)C[C@@H]2O[C@](O)(C[C@@H](O)C[C@@H](O)[C@H](O)CC[C@@H](O)C[C@@H](O)CC(=O)O[C@H]1C)C[C@H](O)[C@H]2C(=O)O` [AMPHOTERICIN B], the MIC with Aspergillus flavus came to 50 µg/mL (≈ 54.1 µM); against Candida [1], 25 µg/mL (≈ 27.1 µM); against Candida [2], 25 µg/mL (≈ 27.1 µM); against Aspergillus niger, 50 µg/mL (≈ 54.1 µM).

In the case of `O=[N+]([O-])c1ccccc1/C=N/N=C1\C[C@@H](c2ccccc2)S[C@@H](c2ccccc2)C1` (relative stereo), the minimal inhibitory concentration (MIC) against Aspergillus flavus stood at 100 µg/mL (≈ 241 µM); with Candida [1] it was 25 µg/mL (≈ 60.2 µM); in the assay on Candida [2], 50 µg/mL (≈ 120 µM); against Aspergillus niger it was 100 µg/mL (≈ 241 µM); against Pseudomonas aeruginosa, 50 µg/mL (≈ 120 µM); against Staphylococcus aureus it was 25 µg/mL (≈ 60.2 µM). Also, the minimum inhibitory concentration (MIC) in the assay with Bacillus subtilis is 25 µg/mL (≈ 60.2 µM); in the assay on Enterococcus faecalis it was 50 µg/mL (≈ 120 µM); with Escherichia coli it was 100 µg/mL (≈ 241 µM).

In the case of `N/N=C1\C[C@@H](c2ccccc2)S[C@@H](c2ccccc2)C1` (relative stereo), the MIC was 100 µg/mL (≈ 354 µM) against Aspergillus flavus; 100 µg/mL (≈ 354 µM) with Candida [1]; 50 µg/mL (≈ 177 µM) against Candida [2]; 100 µg/mL (≈ 354 µM) in the assay on Aspergillus niger; 100 µg/mL (≈ 354 µM) in the assay with Pseudomonas aeruginosa; 100 µg/mL (≈ 354 µM) against Staphylococcus aureus. Besides, the minimum inhibitory concentration (MIC) against Bacillus subtilis was 100 µg/mL (≈ 354 µM); in the assay with Enterococcus faecalis it was 100 µg/mL (≈ 354 µM); against Escherichia coli it was 50 µg/mL (≈ 177 µM).

In the case of `c1ccc([C@@H]2C/C(=N\N=C3/C[C@@H](c4ccccc4)S[C@@H](c4ccccc4)C3)C[C@H](c3ccccc3)S2)cc1`, the MIC with Aspergillus flavus came out at 100 µg/mL (≈ 188 µM); in the assay on Candida [1], 50 µg/mL (≈ 93.8 µM); with Candida [2] it was 100 µg/mL (≈ 188 µM); in the assay on Aspergillus niger it was 50 µg/mL (≈ 93.8 µM); with Pseudomonas aeruginosa, 50 µg/mL (≈ 93.8 µM); in the assay with Staphylococcus aureus it was 25 µg/mL (≈ 46.9 µM). Further, the minimal inhibitory concentration (MIC) worked out at 50 µg/mL (≈ 93.8 µM) with Bacillus subtilis, 100 µg/mL (≈ 188 µM) against Enterococcus faecalis and 100 µg/mL (≈ 188 µM) in the assay on Escherichia coli.

Turning to `Oc1ccccc1/C=N/N=C1\C[C@@H](c2ccccc2)S[C@@H](c2ccccc2)C1` (relative stereo), the minimal inhibitory concentration (MIC) is 50 µg/mL (≈ 129 µM) in the assay with Aspergillus flavus; 12.5 µg/mL (≈ 32.3 µM) with Candida [1]; 12.5 µg/mL (≈ 32.3 µM) in the assay on Candida [2]; 25 µg/mL (≈ 64.7 µM) in the assay with Aspergillus niger; 25 µg/mL (≈ 64.7 µM) in the assay with Pseudomonas aeruginosa; 25 µg/mL (≈ 64.7 µM) in the assay on Staphylococcus aureus. Further, the MIC in the assay on Bacillus subtilis is 6.25 µg/mL (≈ 16.2 µM); with Enterococcus faecalis it was 25 µg/mL (≈ 64.7 µM); with Escherichia coli, 12.5 µg/mL (≈ 32.3 µM).
